# In patent US20080103198A1, “METHODS FOR TREATMENT OF COCHLEAR AND VESTIBULAR DISORDERS” (priority 2006, published 2008):
# Key:
# PC12 cells = experiment: PC12 cell serum withdrawal model (MTS assay); format: cell-based; details: control cells = 100%
# Description: Serum withdrawal is a cytotoxic environmental challenge that results in cell death in cultured cell lines as well as in primary cells of various tissue origins, including nerve cells. In particular, pheochromocytoma (PC) 12 cells have been widely employed as an in vitro neuronal cell model for a wide variety of neurodegenerative and cell death related disorders (Muriel, et al, Mitochondrial free calcium levels (Rhod-2 fluorescence) and ultrastructural alterations in neuronally differentiated PC12 cells during ceramide-dependent cell death, J. Comp. Neurol., 2000, 426(2), 297-315; Dermitzaki, et al, Opioids transiently prevent activation of apoptotic mechanisms following short periods of serum withdrawal, J. Neurochem., 2000, 74(3), 960-969; Carlile, et al, Reduced apoptosis after nerve growth factor and serum withdrawal: conversion of tetrameric glyceraldehyde-3-phosphate dehydrogenase to a dimer, Mol. Pharmacol., 2000, 57(1), 2-12).
# PC12 cells were cultured in sterile media (RPMI 1640) supplemented with 10% heat-inactivated horse serum and 5% fetal bovine serum (FBS). The culture medium also contained Penicillin-Streptomycin-Neomycin antibiotic (50µg, 50µg, 100µg, respectively). Medium was exchanged every other day and the cells were passed in log phase near confluence.
# The control cells were cultured in regular media without any treatment. An enantiomer of Formula 7 or Formula 8 (10µM) was mixed well in the medium and then applied to the cells. For the 2 day assay, an enantiomer of Formula 7 or Formula 8 (10µM) was only applied to the cells once at the time of serum withdrawal. For the 7 day assay, an enantiomer of Formula 7 or Formula 8 (10. mu.M) was applied to the cells at the time of serum withdrawal and every 48 hr thereafter when cells were changed with fresh new serum-free medium. In the serum withdrawal group, the cells were cultured in serum-free medium with no additional enantiomer of Formula 7 or Formula 8. Cell survival was determined by the 3-(4,5-dimethylthiazol-2-yl)-5-(3-carboxy-methoxyphenyl)-2-(4-sulfophenyl)-2H-tetrazolium inner salt (MTS) assay at 2 or 7 days after serum withdrawal.
# At the end of the experiment, cells were washed with fresh medium and incubated with MTS solution in a humidified 37° C. with 5% CO2 incubator for 1.5 hr. After the incubation period, the cells were immediately analyzed using a Softmax program (Molecular Devices). […] The assay is based on the cellular conversion of the tetrazolium salt, MTS, into a formazan that is soluble in tissue culture medium and measured directly at 490 nm in 96-well assay plates. The absorbance is directly proportional to the number of living cells in culture. The arbitrary absorbance reading in control cells is expressed as 100% survival rate.
# [1] = test system: transient cerebral ischemia (MCAO); experiment: Transient cerebral ischemia middle cerebral artery occlusion (MCAO) rat model; format: in vivo; details: N=12
# Procedure: The enantiomer of Formula 7 was investigated in the transient cerebral ischemia middle cerebral artery occlusion (MCAO) rat model (as described in Nagasawa H. and Kogure K., Stroke, 1989, 20, 1037; and, Zea Longa E., Weinstein P. R., Carlson S, and Cummins R., Stroke, 1989, 20, 84) using male Wistar rats at 10 and 100 mg/kg (i.v.). MK 801 (Dizocilpine maleate; CAS Registry number 77086-22-7, a commercially available neuroprotectant compound) was used as a positive control (3 mg/kg, i.p.).
# Rats (n=12) were randomly allocated to one of four experimental groups and were anesthetized. Blood flow from the internal carotid artery, anterior cerebral artery and posterior cerebral artery into the middle cerebral artery was blocked by this procedure. One hour after blockage, animals were treated over a 1 hour period with vehicle (administered i.v. over the one hour period), control (administered as a single i.p. dose at the start of the one hour period) and two doses of the enantiomer of Formula 7 (administered i.v. over the one hour period). Two hours after blockage, reperfusion was performed.
# The animals were sacrificed and […] coronal sections of each brain were prepared. One in every forty sections (i.e. every […]) from the front to the occipital cortex was used to quantify the extent of the cerebral lesion. Slides were prepared using sections stained (according to the Nissl procedure) with cresyl violet and were examined under a light microscope.
# Regional ischemic surface areas in the coronal sections of individual rats were determined according to the presence of cells with morphological changes. The areas of neuronal injury or infarction were measured and then added. The cortex and striatum volume were calculated for each animal (total ischemic surface area×0.8 mm (thickness)).
# The mean volumes (.+−.S.E.M.) for each animal randomly assigned to the four experimental groups were compared using one-way ANOVA (one way ANOVA is a statistical method which compares 3 or more unmatched groups) followed by Dunnett's t-test (both methods incorporated in Statview 512+software, BarinPower, Calabasas, Calif., USA).
# [2] = Formula 7 10 mg/kg i.v. over 1 hour
# [3] = Formula 7 100 mg/kg i.v. over 1 hour
compound,measurement,setting,value
NC(=O)OC[C@@H](O)c1ccccc1Cl [test compound],2 Day Survival Rate,PC12 cells; 10 µM applied once at serum withdrawal,69.4 ± 1.7^1%
same,7 Day Survival Rate,PC12 cells; 10 µM at serum withdrawal and every 48 hr,79.9 ± 4.0^2%
same,"Mean Infarct Volume ± S.E.M., Cortex Volume",[1]; [2],201.0 ± 23.9 ^ mm^3
same,"Mean Infarct Volume ± S.E.M., Striatum",[1]; [2],75.9 ± 2.6^ mm^3
same,"Mean Infarct Volume ± S.E.M., Total",[1]; [2],276.9 ± 25.4^ mm^3
same,"Mean Infarct Volume ± S.E.M., Cortex Volume",[1]; [3],98.8 ± 29.5^1 mm^3
same,"Mean Infarct Volume ± S.E.M., Striatum",[1]; [3],63.0 ± 5.9^2 mm^3
same,"Mean Infarct Volume ± S.E.M., Total",[1]; [3],161.9 ± 34.3^1 mm^3
